Earlier results on 8 molecules are cited in patent EP1577823B1, “A method for identifying unknown proteins by a two-dimensional separation step and the use of markers” (CENTRE NATIONAL DE LA RECHERCHE SCIENTIFIQUE (CNRS), priority 2004, dated 2005).

The conditions of this data set: pKa value of the positively or negatively charged amino acid side chain.
Regarding `N[C@@H](CCC(=O)O)C(=O)O` [Glutamic acid], the pKR is 4,3.
As for `N[C@@H](CS)C(=O)O` [Cysteine], the pKR is 8,3.
For the molecule `N[C@@H](Cc1c[nH]cn1)C(=O)O` [Histidine], the pKR is given as 6.
Take `C[C@@H](O)[C@H](N)C(=O)O` [Threonine]: the pKR was 13.
`N[C@@H](CO)C(=O)O` [Serine]: the pKR is recorded as 13.
For the molecule `N[C@@H](Cc1ccc(O)cc1)C(=O)O` [Tyrosine], the pKR is on record as 10,1.
Turning to `NCCCC[C@H](N)C(=O)O` [Lysine], the pKR is reported as 10,8.
Take `N=C(N)NCCC[C@H](N)C(=O)O` [Arginine]: the pKR is 12,5.
